Assay results from patent US5876715A, “Antibodies that bind novel carbohydrate ligands (myelorollins) that cause E-selectin dependent cell rolling, and uses thereof” (The Biomembrane Institute, priority 1996, dated 1999).
“Also recorded” adds a separate entry of the source.

System: E-selectin-expressing CHO cells
Assay: Static adhesion of E-selectin-expressing CHO cells to gangliosides coated on polystyrene beads affixed to glass slides
Type: cell-based, Chinese hamster
Conditions: static conditions, ganglioside coated on polystyrene beads affixed on glass slides
Experimental: Polystyrene beads (1 μm diameter) were spread and affixed to glass microscope slides as described in Materials & Methods, added with 100 ng of poly-LacNac ganglioside dissolved in isopropanol-hexane-water (50:45:10), allowed to dry for 1 hr, and immersed in PBS containing 2% BSA. The slides were placed in Petri dishes and overlaid with RPMI medium containing E-selectin-expressing CHO cells (1×10^5 /cells mL). After 10 min incubation, slides were washed with PBS and total numbers of cells adhered on beads were counted. Each point represents one experiment. Horizontal lines indicate arithmetic means.
Gangliosides coated on polystyrene beads affixed on glass slides as described above and placed in petri dishes were incubated with E-selectin-expressing CHO cells in 1% FCS-RPMI medium. After 30 min, slides were washed 3 times with PBS, and numbers of adherent cells were counted under a microscope.
Polystyrene latex beads were affixed on glass microscope slides, added with 1 nmol of ganglioside fraction dissolved in isopropanol-hexane-water (50:45:10), allowed to dry for 1 hr, and then immersed in PBS(+) containing 1% bovine serum albumin. The slides were placed in Petri dishes containing permanently E-selectin-expressing CHO cells (1×10^5) in RPMI medium. After 30 min. incubation, slides were washed with PBS and total numbers of cells adhered on the affixed beads were counted. Sdiy^2 is sialyl-Le^x -Le^x (VI^3 NeuAcV^3 FucIII^3 FucnLc6 Cer).
Static adhesion assay using polystyrene latex beads: In order to observe static adhesion with the same matrix used for dynamic adhesion assay, the following procedure was used. Polystyrene latex beads of 1 μm or 4 μm diameter (IDC Spheres™; IDC, Portland, Oreg.), affixed to objective microscope slides, were used as carriers of poly-LacNAc GSLs. 30 μL of the 4 μm diameter bead suspension (containing 2×10^9beads/mL) or 60 μL of 1 μm bead suspension (containing 1×10^11 beads/mL) were placed in Eppendorf tubes and washed with absolute ethanol 3×. Sedimented 4 μm beads were suspended in […] ethanol, and sedimented 1 μm beads were suspended in 2 mL ethanol. 1 μL aliquots of these suspensions were placed on freshly opened microscope slides (Labcraft Superfrost® Plus, Curtin Matheson Scientific, Houston, Tex.). Beads were distributed homogeneously on the glass surface within a circular spot with diameter ≈1 cm. Slides were heated at 150° C. for 50 sec, which caused the beads to adhere strongly to the surface such that they could not be washed off by water stream at various velocities. Gangliosides dissolved in isopropanol-hexane-water at the same molar concentration were applied to latex beads affixed to the slides; namely, 1 μL aliquots containing 50-100 ng ganglioside were placed on the center of the circular spot. The ganglioside thus became affixed to the bead surface. Plates were immersed in 3% BSA in PBS for 1 hr at room temp, and washed 3× with PBS containing Ca^2+ /Mg^2+.
Plates were overlaid with 5×10^5 CHO cells freshly harvested and suspended in RPMI culture medium for 15 min without moving. Washing with RPMI 3× was usually sufficient to eliminate non-adherent cells from beads. However, careful microscopic examination had to be repeated until the cells placed on control polystyrene beads were washed out. Plates were then fixed with 1% glutaraldehyde in PBS and number of cells adhered to the layer of poly-LacNAc ganglioside-coated beads were counted.

“VIII^3 NeuAcIII^3 FucnLc8 Cer [Fr. 10-2]” was tested, and the “adhesion of E-selectin-expressing CHO cells (number of cells adhered on beads)” value was “much weaker adhesion than Fr. 13-1 or Fr. 14”.

With VIII^3 NeuAcV^3 FucnLc8 Cer [Fr. 10-1] the “adhesion of E-selectin-expressing CHO cells (number of cells adhered on beads)” value was “much weaker adhesion than Fr. 13-1 or Fr. 14” and the “adhesion of E-selectin-expressing CHO cells (number of cells adhered on beads)” value (listed as Str. 4) was “do not show appreciable adhesion”.

With “VI^3 NeuAcV^3 FucIII^3 FucnLc6 Cer [SLe^x -Le^x, reference compound]” the “adhesion of E-selectin-expressing CHO cells (number of cells adhered on beads)” value was “greatest cell adhesion; also recorded: highest adhesion; also recorded: slightly higher adhesion than Fr. 13-1; also recorded: highest binding; also recorded: higher number of E-selectin-expressing cells adhered” and the “adhesion of E-selectin-expressing CHO cells (number of cells adhered on beads)” value (listed as Str. 3) was “much higher number of cells bound; also recorded: much higher adhesion than myelorollin”.

With VI^3 NeuAcnLc6 Cer [Fr. 7] the “adhesion of E-selectin-expressing CHO cells (number of cells adhered on beads)” value was “no adhesion” and the “adhesion of E-selectin-expressing CHO cells (number of cells adhered on beads)” value (listed as Str. 1) was “did not bind”.

With “X^3 NeuAcVII^3 FucV^3 FucnLc10 Cer [Fr. 13-1]” the “adhesion of E-selectin-expressing CHO cells (number of cells adhered on beads)” value was “less than numbers binding to Str. 3”.

For X^3 NeuAcVII^3 FucnLc10 Cer [Fr. 12-2], the “adhesion of E-selectin-expressing CHO cells (number of cells adhered on beads)” value was “much weaker adhesion than Fr. 13-1 or Fr. 14” and the “adhesion of E-selectin-expressing CHO cells (number of cells adhered on beads)” value (listed as Str. 6) was “do not show appreciable adhesion”.
